Target: T1, ALK-5 (TβRI) (Homo sapiens, UniProt P36897)
T1 construct: using either the kinase domain of ALK5 with Smad3 as substrate; GST
T1 sequence (P36897 205-495 limits assumed): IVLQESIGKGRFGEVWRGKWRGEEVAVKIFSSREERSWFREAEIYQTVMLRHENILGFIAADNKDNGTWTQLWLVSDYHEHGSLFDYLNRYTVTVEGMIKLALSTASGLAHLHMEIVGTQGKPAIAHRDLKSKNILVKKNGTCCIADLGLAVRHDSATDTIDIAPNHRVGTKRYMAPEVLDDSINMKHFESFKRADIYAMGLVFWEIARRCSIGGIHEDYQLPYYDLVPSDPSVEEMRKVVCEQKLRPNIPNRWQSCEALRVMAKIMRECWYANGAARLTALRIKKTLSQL
Assay: ALK-5 (TβRI) Kinase Assay
Assay type: biochemical
Procedure: The kinase assays were performed with 65 nM GST-ALK5 and 84 nM GST-Smad3 in 50 mM HEPES, 5 mM MgCl2, 1 mM CaCl2, 1 mM dithiothreitol, and 3_M ATP. Reactions were incubated with 0.5_Ci of [33 P]_ATP for 3 h at 30° C. Phosphorylated protein was captured on P-81 paper (Whatman, Maidstone, England), washed with 0.5% phosphoric acid, and counted by liquid scintillation. Alternatively, Smad3 or Smad1 protein was also coated onto FlashPlate Sterile Basic Microplates (PerkinElmer Life Sciences, Boston, Mass.). Kinase assays were then performed in Flash-Plates with same assay conditions using either the kinase domain of ALK5 with Smad3 as substrate or the kinase domain of ALK6 (BMP receptor) with Smad1 as substrate. Plates were washed three times with phosphate buffer and counted by TopCount (Packard Bio-science, Meriden, Conn.). (Laping, N. J. et al. Molecular Pharmacology 62:58-64 (2002)).

IC50: ~51 nM
Compound: c1ccc(-c2n[nH]cc2-c2ccc3c(c2)OCO3)nc1 [Example 7, 2-(4-Benzo[1,3]dioxol-5-yl-1H-pyrazol-3-yl)-pyridine]

Source: US7638537B2, “Pyrazole compounds as transforming growth factor (TGF) inhibitors” (Pfizer Inc., priority 2002, dated 2009)
